17 molecules from patent US8563714B2, “Bridged spiro [2.4] heptane derivatives as ALX receptor and/or FPRL2 agonists” (Actelion Pharmaceuticals Ltd., priority 2009, dated 2013) can be followed below.

For assay [1], the target named is T1, human FPRL2 (Homo sapiens, UniProt P25089).
T1 construct: expressed in transfected cells; host or cells: HEK293 (HEK293-hFPRL2-Gα16)
T1 sequence (P25089 1-353): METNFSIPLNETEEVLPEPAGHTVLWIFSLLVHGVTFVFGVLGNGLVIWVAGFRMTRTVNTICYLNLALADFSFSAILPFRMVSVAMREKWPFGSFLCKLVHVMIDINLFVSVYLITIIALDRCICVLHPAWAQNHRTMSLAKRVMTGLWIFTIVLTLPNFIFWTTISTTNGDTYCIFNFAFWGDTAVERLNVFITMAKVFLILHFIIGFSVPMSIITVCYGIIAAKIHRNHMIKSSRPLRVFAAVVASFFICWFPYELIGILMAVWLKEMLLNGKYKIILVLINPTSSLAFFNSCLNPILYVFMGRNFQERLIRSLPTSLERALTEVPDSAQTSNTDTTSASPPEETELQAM
The experiment in a line: Intracellular calcium measurements (FLIPR), agonistic activity in HEK293-hFPRL2-Gα16 cells. Particulars: Fluo-4 calcium FLIPR, normalized to GLY14-Humanin 100 nM. It counts as cell-based. In a few lines:
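Peak values after baseline subtraction are expressed relative to 100 nM Gly14-Humanin; compounds diluted in assay buffer from 10 mM DMSO stocks.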
Background: Calcium assays in cells follow changes in intracellular calcium, usually with a dye or a luminescent sensor.

Assay [2] concerns the target T2, human ALX receptor (Homo sapiens, UniProt P25090).
T2 construct: expressed in transfected cells; host or cells: HEK293 (HEK293-hALXR-Gα16)
T2 sequence (P25090 1-351): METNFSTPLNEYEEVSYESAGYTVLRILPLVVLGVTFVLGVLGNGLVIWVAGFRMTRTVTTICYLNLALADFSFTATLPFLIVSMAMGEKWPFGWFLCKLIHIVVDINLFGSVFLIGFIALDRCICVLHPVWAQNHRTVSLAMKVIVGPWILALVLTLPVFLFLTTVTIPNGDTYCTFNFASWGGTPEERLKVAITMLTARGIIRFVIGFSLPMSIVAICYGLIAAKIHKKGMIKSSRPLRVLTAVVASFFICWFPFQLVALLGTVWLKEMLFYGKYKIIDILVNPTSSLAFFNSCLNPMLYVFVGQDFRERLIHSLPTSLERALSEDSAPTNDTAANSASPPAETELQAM
The experiment in a line: Intracellular calcium measurements (FLIPR), agonistic activity in HEK293-hALXR-Gα16 cells. It counts as cell-based. Particulars: Fluo-4 calcium FLIPR, normalized to WKYMVm 10 nM. In outline:
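HEK293 cells expressing hALXR and Gα16 were loaded with 1 μM Fluo-4 AM and 20 mM HEPES for 60 min at 37°C, then exposed to serially diluted compound. FLIPR fluorescence was read at ex 488/em 540 nm. Baseline-subtracted peak responses were normalized to 10 nM WKYMVm.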

The term EC50 denotes the midpoint of the concentration-response curve. As for `Cc1cc(C(=O)NC[C@H]2[C@H](C(=O)Nc3ccc(Br)cc3)[C@@H]3C=C[C@H]2C32CC2)nn1C` (racemic) [Example 178, (5R*)—N^5-(4-Bromo-phenyl)-(6R*)-6-{[(1,5-dimethyl-1H-pyrazole-3-carbonyl)-amino]-methyl}-(4S*,7R*)-[4,7-ethenylene-spiro[2.4]heptane]-5-carboxamide], the EC50 in assay [1] was 4070 nM; in assay [2], 115 nM.
On the same counts, the results for `O=C(NCCCCN1CCCC1)[C@H]1[C@H](C(=O)Nc2ccc(Br)nc2)[C@@H]2C=C[C@H]1C21CC1` [Example 258, (5R)—N^5-(2-Bromo-pyridin-5-yl)-(6R)—N^6-(4-pyrrolidin-1-yl-butyl)-(4S,7R)-[4,7-ethenylene-spiro[2.4]heptane]-5,6-dicarboxamide] are 173 nM and 1.1 nM.
The matching figures for `O=C(NCCCCN1CCCC1)[C@H]1[C@H](C(=O)NCc2nc(Br)cs2)[C@@H]2C=C[C@H]1C21CC1` (racemic) [Example 234, (5R*)—N^5-(4-Bromo-thiazol-2-yl-methyl)-(6R*)—N^6-(4-pyrrolidin-1-yl-butyl)-(4S*,7R*)-[4,7-ethenylene-spiro[2.4]heptane]-5,6-dicarboxamide]: 176 nM and 73 nM.
The matching figures for `COc1ccc(NC(=O)[C@H]2[C@H](C(=O)NCCCCN3CCCC3)[C@H]3C=C[C@@H]2C32CC2)cc1` [Example 285, (5R)—N^5-(4-Methoxyphenyl)-(6R)—N^6-(4-pyrrolidino-butyl)-(4S,7R)-[4,7-ethenylene-spiro[2.4]heptane]-5,6-dicarboxamide]: 224 nM and 9 nM.
Regarding `COCCCNC(=O)[C@H]1[C@H](C(=O)Nc2ccc(Br)cc2)[C@@H]2CC[C@H]1C21CC1` (racemic) [Example 103, (5R*)—N^5-(4-Bromophenyl)-(6R*)—N^6-(3-methoxy-propyl)-(4S*,7R*)-[4,7-ethylene-spiro[2.4]heptane]-5,6-dicarboxamide], the values for the EC50 in assay [1] and in assay [2] were 6920 nM and 4.8 nM, respectively.
On to `Cc1cc2ccccc2n1CCCNC(=O)[C@H]1[C@H](C(=O)NCCCCN2CCCC2)[C@H]2C=C[C@@H]1C21CC1` (racemic) [Example 155, (5R*)—N^5-(3-(2-Methyl-1H-indol-1-yl)-propyl)-(6R*)—N^6-(4-pyrrolidin-1-yl-butyl)-(4S*,7R*)-[4,7-ethenylene-spiro[2.4]heptane]-5,6-dicarboxamide], for which the EC50 in assay [1] was 91 nM; in assay [2] it was over 25000 nM.
For `CN(CCNC(=O)[C@H]1[C@H](C(=O)Nc2ccc(Br)cc2)[C@@H]2C=C[C@H]1C21CC1)C(=O)OC(C)(C)C` (racemic) [Example 47, (5R*)—N^5-(4-Bromophenyl)-(6R*)—N^6-(2-(methyl-tert-butoxycarbonyl-amino)-ethyl)-(4S*,7R*)-[4,7-ethenylene-spiro[2.4]heptane]-5,6-dicarboxamide], the EC50 came out at 1170 nM in assay [1] and 12 nM in assay [2].
The matching figures for `CCCC(=O)NC[C@H]1[C@H](C(=O)Nc2ccc(Br)cc2)[C@@H]2C=C[C@H]1C21CC1` (racemic) [Example 187, (5R*)—N^5-(4-Bromo-phenyl)-(6R*)-6-[(butanoylamino)-methyl]-(4S*,7R*)-[4,7-ethenylene-spiro[2.4]heptane]-5-carboxamide]: 4270 nM and 505 nM.
On the same counts, the results for `O=C(NCCCCN1CCCC1)[C@H]1[C@H](C(=O)NCCn2ccc3ccccc32)[C@@H]2C=C[C@H]1C21CC1` (racemic) [Example 157, (5R*)—N^5-(2-(1H-Indol-1-yl)-ethyl)-(6R*)—N^6-(4-pyrrolidin-1-yl-butyl)-(4S*,7R*)-[4,7-ethenylene-spiro[2.4]heptane]-5,6-dicarboxamide] are 136 nM and over 25000 nM.
For the molecule `O=C(NC[C@H]1[C@H](C(=O)Nc2ccc(Br)cc2)[C@@H]2C=C[C@H]1C21CC1)c1ccnn1-c1ccccc1` (racemic) [Example 169, (5R*)—N^5-(4-Bromo-phenyl)-(6R*)-6-{[(1-phenyl-1H-pyrazole-5-carbonyl)-amino]-methyl}-(4S*,7R*)-[4,7-ethenylene-spiro[2.4]heptane]-5-carboxamide], the values for the EC50 in assay [1] and in assay [2] were 1790 nM and 112 nM, respectively.
On the same counts, the results for `O=C(NCCCCN1CCCC1)[C@H]1[C@H](C(=O)NCc2cc(F)cc(F)c2F)[C@@H]2C=C[C@H]1C21CC1` (racemic) [Example 355, (5R*)—N^5-(2,3,5-Trifluorophenyl-methyl)-(6R*)—N^6-(4-pyrrolidino-butyl)-(4S*,7R*)-[4,7-ethenylene-spiro[2.4]heptane]-5,6-dicarboxamide] are 477 nM and 7500 nM.
The matching figures for `O=C(N[C@@H]1CC[C@@H](CN2CCCC2)OC1)[C@H]1[C@H](C(=O)Nc2ccc(Br)cc2)[C@@H]2C=C[C@H]1C21CC1` [Example 216, (5R)—N^5-(4-Bromophenyl)-(6R)—N^6-((3R,6S)-6-(pyrrolidin-1-ylmethyl)tetrahydro-2H-pyran-3-yl)-(4S,7R)-[4,7-ethenylene-spiro[2.4]heptane]-5,6-dicarboxamide]: 297 nM and 2.7 nM.
As for `COCCN(CCOC)C(=O)[C@H]1[C@H](C(=O)Nc2ccc(Br)cc2)[C@@H]2C=C[C@H]1C21CC1` [Example 63, (5R)—N^5-(4-Bromophenyl)-(6R)—N^6,N^6-bis-(2-methoxy-ethyl)-(4S,7R)-[4,7-ethenylene-spiro[2.4]heptane]-5,6-dicarboxamide], the results for the EC50 in assay [1] and in assay [2] were 3950 nM and 24 nM, respectively.
Regarding `COCCN(CCOC)C(=O)C1C(C(=O)Nc2ccc(Br)cc2)C2C=CC1C21CC1` (racemic) [Example 35, (5R*)—N^5-(4-Bromophenyl)-(6R*)—N^6,N^6-bis-(2-methoxy-ethyl)-(4S*,7R*)-[4,7-ethenylene-spiro[2.4]heptane]-5,6-dicarboxamide], the figures for the EC50 in assay [1] and in assay [2] were 1870 nM and 6.1 nM, respectively.
Consider `O=C(NCCCCN1CCCC1)[C@H]1[C@H](C(=O)Nc2ccc(Br)cn2)[C@@H]2C=C[C@H]1C21CC1` [Example 294, (5R)—N^5-(5-Bromo-pyridin-2-yl)-(6R)—N^6-(4-pyrrolidino-butyl)-(4S,7R)-[4,7-ethenylene-spiro[2.4]heptane]-5,6-dicarboxamide], for which the half-maximal effective concentration (EC50) in assay [1] turned out to be 187 nM; in assay [2], 2.9 nM.
The matching figures for `CN1CCN(CCCNC(=O)[C@H]2[C@H](C(=O)NCc3ccc(Br)cc3)[C@@H]3C=C[C@H]2C32CC2)CC1` (racemic) [Example 273, (5R*)—N^5-(4-Bromophenyl-methyl)-(6R*)—N^6-(3-(4-methylpiperazin-1-yl)-propyl)-(4S*,7R*)-[4,7-ethenylene-spiro[2.4]heptane]-5,6-dicarboxamide]: 432 nM and 213 nM.
On the same counts, the results for `CC(=O)c1ccc(CNC(=O)[C@H]2[C@H](C(=O)NCCCCN3CCCC3)[C@H]3C=C[C@@H]2C32CC2)s1` (racemic) [Example 194, (5R*)—N^5-(5-Acetyl-thiophen-2-yl-methyl)-(6R*)—N^6-(4-pyrrolidin-1-yl-butyl)-(4S*,7R*)-[4,7-ethenylene-spiro[2.4]heptane]-5,6-dicarboxamide] are 436 nM and 223 nM.
